As a reminder, the IC50 is the concentration that inhibits the measured activity by half. A high value points to lower potency.

The record followed here is patent US11142539B2, “Phosphinogold(I) complexes and methods of treating cancer” (King Fahd University of Petroleum and Minerals, priority 2020, dated 2021).

For assay [1], the system named is HeLa (human cervical cancer) cell line. Put plainly: Cell Titer-Glo luminescence-based cell growth inhibition assay, HeLa. Particulars: HeLa cells, 72 hours incubation, spread in brackets. The method, then:
(§1) The cell growth inhibition effects of gold(I) complexes 1-4 and cisplatin were measured by the Cell Titer-Glo® luminescence-based assay against the A549 (human lung carcinoma), HeLa (human cervical cancer), and HepG2 (human liver cancer) cell lines according to manufacturer's protocol. Briefly, the cell suspensions were added to each well of 384-w plate at a suitable density (total volume of 40 μL). The margin wells of plate were filled with PBS buffer. The gold(I) complexes were added at various concentrations in triplicate (10 μL solutions of the complex added to the plate), then the plate was incubated for 72 hours in 5% CO2 incubator at 37° C. After that the Cell Titer reagent was added to each tested well and stirred for 2 minutes on an orbital shaker. […] Luminescence signals were measured on PHERAstar Plus. […] The potential effect of the testing complexes on cell growth inhibition expressed as IC50 values was calculated by the formula below: Cell growth Inhibition %=100-100*(Luminescencecomplex)/(LuminescenceDMSO) Cell viability %=100*(Luminescencecomplex)/(LuminescenceDMSO)
(§2) The gold(I) complexes 1-4 and cisplatin were examined for their cell growth inhibition effects against A549, HeLa, and HepG2 human cancer cell lines using Cell Titer-Glo® luminescence-based assay. […]
For orientation: ATP-based viability assays read luminescence as a measure of living cells.

The test system of assay [2] is HepG2 (human liver cancer) cell line. The assay is described as follows: Cell Titer-Glo luminescence-based cell growth inhibition assay, HepG2. Conditions: HepG2 cells, 72 hours incubation, spread in brackets. The method, then: as §1, §2
The subject of assay [3] is A549, HeLa, and HepG2 human cancer cell lines. Put plainly: Cell Titer-Glo cell growth inhibition, summary statements over all three cell lines. The assay is classed as cell-based. Conditions: with respect to cisplatin. The method, then: as §1, §2

Molecules are shown by their SMILES. “Also recorded” adds a separate entry of the source.

With `N.N.[Cl][Pt][Cl]` [Cisplatin, cisplatin], the IC50 came out at 21.4 µM in assay [1] and 9.6 µM in assay [2].

As for `N[C@@H]1CCCC[C@H]1[PH]([Au][Cl])(c1ccccc1)c1ccccc1` [gold(I) complex 1, [Au(ACP)Cl]], the “inhibition of cell proliferation (in words)” value in assay [3] is recorded as “excellent inhibition of cell proliferation”. As to `CN(C)C(=S)[S][Au][PH](c1ccccc1)(c1ccccc1)[C@@H]1CCCC[C@H]1N` [gold(I) complex 2], the “inhibition of cell proliferation (in words)” value in assay [3] is listed as “excellent inhibition of cell proliferation; also recorded: best inhibition among the three”.
